The conditions of series [1]: cited from earlier work; for half-life: oral, terminal half-life.
The conditions of series [2]: cited from earlier work.
The conditions of series [3]: cited from earlier work. This is another data set of the same source.
Series [4] in a line: Saturated solubility of sildenafil in water and organic-aqueous solvents (shake flask, HPLC). Type of series: physicochemical. As to conditions: for solubility: water, thermodynamic from solid. The text has this: Afterwards the solution was filtered using the VWR 0.2 mcron filter.
Series [5] in a line: Saturated solubility of vardenafil API in water and organic-aqueous solvents (shake flask, HPLC). Type of series: physicochemical. To be noted: for solubility: water, pH 4, aqueous buffer, thermodynamic from solid, pH4. As to the method: For screening of various organic solvents, the solubility of vardenafil API in different % ethanol-aqueous mixtures was first investigated and compared to solubility in pure water. As disclosed herein, the solutions were prepared by the “shake flask” method. Briefly, increasing amounts of vardenafil API were added to different mixtures until saturation. The saturated organic-aqueous mixtures were adjusted for pH (at the range pH 3.5-7.5) with the use of a pH meter. The saturated solution was shaken slowly with a magnetic stirrer at room temperature or shaken rapidly several times a day for 24 hours or longer, up to 3 days. Afterwards, the solutions were filtered using the VWR 0.2 micron filter. The filtrate was then used for inspection of clarity and concentration was determined by HPLC. In addition, the saturated solubility of vardenafil various organic-aqueous solution, e.g., in glycerin (glycerol), polyethylene glycol 400 (PEG) and combination of two organic solvents were investigated. Vardenafil solubility in some other representative organic-aqueous solutions were also investigated.
The standard curves were prepared in MeOH and mixed with PBS so that the analytical matrices were the same.

Series [6] can be described thus: Vardenafil permeability (Papp) and flux (Jss) by PAMPA. In kind it is in vitro ADME. The text has this: As disclosed herein, the permeability of vardenafil API in different solvents at room temperature and atmospheric pressure was screened using in vitro PAMPA. The PAMPA predicts passive absorption of drugs and is suitable for studies with many solutions including ethanol (up to concentration of 30%)(22-24). The unit of measurement is the apparent permeability (Papp) obtained at steady state, expressed as cm/second. Also another associated measurement is the maximum flux (Jss) at a particular pH, expressed as the quantity of drug across the unit area per sec, is calculated from the Papp and saturated solubility. […]
Apparent permeability coefficient (Papp) determination, expressed as cm/sec, was calculated based on the following equation at steady state (24) where • VD=volume in donor chamber • VA=volume in acceptor chamber • A=effective area of the membrane (PAMPA: 0.3 cm^2) • t=duration of the permeability study • CA=drug concentration in the acceptor well at the end of the study • CE=equilibrium concentration in both wells, and […]
Steady state flux (Jss). The Jss, expressed as ug/sec/cm^2, was calculated based on the following equation where • CD=loading concentration in the donor chamber […]
(In general: In PAMPA a lipid-coated filter parts donor from acceptor wells.)

Converted amounts (≈) assume the structure as drawn. Where a name gives a salt, the structure may show the parent alone. Read-outs that look alike come from different tables or passages of the source.

Here are results for five compounds from patent US20240216383A1, “FORMULATIONS AND METHODS FOR TREATING ERECTILE DYSFUNCTION” (Strategic Drug Solutions, Inc., priority 2020, published 2024).

`CCCc1nc(C)c2c(=O)[nH]c(-c3cc(S(=O)(=O)N4CCNCC4)ccc3OCC)nn12` [MI metabolite]: the “share of total pharmacologic activity” value in series [1] (metabolite of vardenafil) was “about 7%”.
Consider `CCCc1nn(C)c2c(=O)[nH]c(-c3cc(S(=O)(=O)N4CCN(C)CC4)ccc3OCC)nc12` [sildenafil], for which the solubility in water result was “about 7.0 mg/ml” in series [2] (pH 3-4), around 2100 µg/mL (≈ 4.42 mM) in series [2] (pH 5) and around 30 µg/mL (≈ 0.0632 mM) in series [2] (pH 7). Besides, in series [3], the lipophilicity (log P) was 2.7. The pKa in series [3] (vardenafil: 7.15 mostly basic, 9.86 mostly acidic) is 7.2. In addition, in series [1] (oral administration), the absolute bioavailability entry is “about 41%”. The “mean time (Tmax) for maximum plasma concentration” value (“mean time (Tmax)” below) in series [1] (oral administration) is given as “about 60 min”. The half-life entry in series [1] is “about 4 h”. In addition, the aqueous solubility in series [4] (sildenafil, pHmax 4.2) stood at 3540 µg/mL (≈ 7.46 mM). For the same compound, the solubility is below 5000 µg/mL in series [4] (pH 4, aqueous buffer, read-out: aqueous saturated solubility) and 3340 µg/mL (≈ 7.04 mM) in series [4] (pH 4.55, aqueous buffer, read-out: aqueous solubility).
In the case of `CCCc1nc(C)c2c(=O)[nH]c(-c3cc(S(=O)(=O)N4CCN(CC)CC4)ccc3OCC)nn12` [vardenafil API, vardenafil hydrochloride trihydrate], the time until precipitation in series [5] (solubilized in 12% alcohol) is recorded as at most 24 h. In series [5] (read-out: mean saturated solubility in water), the solubility was below 20000 µg/mL.
Regarding `CN1CC(=O)N2[C@H](c3ccc4c(c3)OCO4)c3[nH]c4ccccc4c3C[C@@H]2C1=O` [tadalafil], the “mean time (Tmax)” value in series [1] (following a single dose) is on record as “about 2 h”. In series [1] (oral administration), the absolute bioavailability is recorded as at most 80%. The half-life entry in series [1] is “about 17.5 h”.
On to `CCCc1nc(C)c2c(=O)[nH]c(-c3cc(S(=O)(=O)N4CCN(CC)CC4)ccc3OCC)nn12` [vardenafil], for which the JsspHmax in series [6] (vardenafil aqueous, pH4) is reported as 7.74 E-05 ug/s/cm^2. In addition, the “Jss(ref)” value in series [6] (vardenafil, Solmin 20 mg/ml, IN dose 2 mg/nostril, pHmax pH4) came out at 8.5E-05 ug/s/cm^2. Besides, the solubility result in series [2] (pH 1) is “about 8.8 g/L”; in series [2] (pH 2) it was around 3000 µg/mL (≈ 6.14 mM); in series [2] (pH 3), around 1600 µg/mL (≈ 3.27 mM); in series [2] (pH 4) it was around 880 µg/mL (≈ 1.8 mM); in series [2] (pH 5), around 160 µg/mL (≈ 0.327 mM); in series [2] (pH 6) it was around 19 µg/mL (≈ 0.0389 mM). The solubility in series [5] (read-out: V(ssol)pHmax, aqueous saturated solubility at pHmax) amounted to 18200 µg/mL. The aqueous solubility entry in series [2] (pH 4-7) was “less than 2 mg/ml”. In series [3], the “log P” value is 3.64. Also, the absolute bioavailability entry in series [1] (oral administration) is on record as “about 15%”. In addition, in series [1] (oral administration), the “mean time (Tmax)” value is given as “about 60 min”.

What is called log P is the decadic logarithm of the partition coefficient of the neutral form, usually between octanol and water. As a reminder, the pKa is the negative logarithm of the acid dissociation constant. As usually defined, the aqueous solubility is the dissolved amount per volume that the medium holds. The term solubility denotes how much of the substance goes into solution per volume.
